Like-named read-outs stand apart in the source and are kept apart here.

A short description of data set [1]: Cytotoxicity in normal prostatic epithelial RWPE-1 cells. As to conditions: human. As to the method: (§1) To identify initial lead(s), we first tested all ten drugs in vitro in human prostate cancer LNCaP and CRPC C4-2 cells to see their growth inhibition effect.
(§2) The LNCaP, C4-2 & RWPE-1 cell lines were provided by Professor Timothy Ratliff (Purdue University Center for Cancer Research, USA). All these cells were and maintained at 37° C. with 5% CO2 atmosphere in a humidified incubator following American Type Culture Collection (ATCC) protocol. LNCaP cells were grown in RPMI-1640 (Gibco) supplemented with 10% FBS (Atlanta Biologics), 20 mM HEPES and 1% penicillin/streptomycin (Invitrogen). C4-2 cells were grown in 4:1 DMEM/F12-K medium (Gibco) supplemented with 10% FBS (Atlanta Biologics), 1% penicillin/streptomycin (Invitrogen), 3 mg/mL sodium bicarbonate, 5 μg/mL insulin, 1.36 ng/mL triiodothyronine, 5 μg/mL transferrin, 0.25 μg/mL biotin and 25 μg/mL adenine. For normal growth, RWPE-1 cells were maintained in Keratinocyte Serum Free Medium (K-SFM) (Invitrogen) supplemented with 0.05 mg/mL bovine pituitary extract (BPE) and 5 ng/mL epidermal growth factor (EGF). […] For experiments, cells were used from 3 to 12 passages from thawing.
(§3) The cell proliferation experiment was carried out by the ‘Cell Titer-Blue Cell Viability Assay,’ In this assay, approximately 5,000 cells/well were seeded in 100 μL growth media in poly-L-lysine coated 96-well plates. Next day, the cells were treated with additional 100 μL of various concentrations of the test compounds or DMSO-growth media as untreated control for 6 days in a humidified incubator at 37° C. and 5% CO2 atmosphere. 10 μL ‘Cell Titer-Blue Reagent’ was added directly to each well after 6 days and the plates were incubated for 3 h at 37° C. to allow cells to convert resazurin to resorufin, and the fluorescent signal was measured at 590 nm using a multiplate ELISA reader (Bio-Tek Synergy HT plate reader, Bio-Tek, Winooski, Vt.). The percentage of viable cells in a compound-treated sample was calculated by considering the absorbance of the DMSO-growth media treated sample as 100%. Data was analysed and IC50 value was calculated using GraphPad Prism Software. All experimental points were done in triplicate and experiments were repeated at least thrice.
(§4) The cell viability assay was performed using a standard methyl thiazolyldiphenyl tetrazolium bromide (MTT) assay. In this assay, approximately 5,000 cells/well were seeded in 100 μL growth media in poly-L-lysine coated 96-well plates. After 1 day of plating, the cells were treated with additional 100 μL of various concentrations of the test compounds or DMSO-growth media as untreated control for 3 days more in a humidified incubator at 37° C. and 5% CO2 atmosphere. After 3 days, the culture medium was replaced with 100 μL of MTT solution (using 1 mg/ml stock in growth media) per well and further incubated at 37° C. for 3-4 h. To dissolve the formazan crystals formed in each well by mitochondrial reductase from live cells, 100 μL DMSO was added in each well and shaked for 30 min at RT using an orbital shaker. The absorbance of each well was measured at 570 nm using a multiplate ELISA reader (Bio-Tek Synergy HT plate reader, Bio-Tek, Winooski, Vt.). The percentage of viable cells in a compound-treated sample was calculated by considering the absorbance of the DMSO-growth media treated sample as 100%. All experimental points were done in triplicate and experiments were repeated at least thrice.

A further data set has as its system RWPE-1 cells. Described as above. Particulars: read-out: cytotoxicity IC50; RWPE-1 normal cells. On the procedure:
as §1, §2, §3, §4

For data set [2] the following is noted: mouse liver microsomes, 3 μM, 37° C., 60 min. For orientation: Liver microsomes are a subcellular fraction often used to study metabolism.
Method: In this assay, the lead compounds were incubated with the respective microsomes at 37° C. and the incubated mixture was analyzed by LC-MS/MS to quantify the remaining parent molecule.
All the test compounds were incubated in duplicate at 3 μM concentration with mouse and human liver microsomes at 37° C. The reaction mixture contained microsomal enzyme in 100 mM potassium phosphate buffer of pH 7.4. Warfarin and verapamil were used as negative and positive control in this assay. After 0 min and 60 min incubation, aliquots were removed from each experimental and control reaction and mixed with an equal volume of ice-cold Stop Solution (0.3% acetic acid in acetonitrile). The samples were centrifuged to remove precipitated protein, and the supernatants were analyzed by LC-MS/MS to quantify the remaining parent molecule. Data represents % remaining as compared to the time zero concentration as 100%.
Another data set concerns LuCaP35CR xenografts. As to the kind of experiment: LuCaP35CR patient derived xenograft (PDX) mice model.
The subject of data set [3] is C4-2 cells. The experiment in a line: Cell proliferation / growth inhibition in CRPC C4-2 cells. In kind it is cell-based, human. On the procedure: as §1
We assessed anti-cancer activity of the synthetic molecules in prostate cancer cell lines as well as toxicity of the active molecules in normal human cell line.
as §2, §3

Data set [4] relates to C4-2 cells. As to the kind of experiment: In vitro scratch assay, C4-2 cell migration. It is filed as cell-based, human. Particulars: no treatment 6.5 μm/h. The text has this:
(§5) We evaluated effects of the active leads on the cancer cell migration—as most often, prostate cancer cell metastasizes to bone leading to the advanced prostate cancer. We performed the well developed in vitro scratch assay to measure both LNCaP and C4-2 cell's migration in presence of the treatments of all these active synthetic compounds. We calculated the migration speed based on the distance travelled/h. The LNCaP cells with no treatment migrated at a speed of 4.8 μm/h, whereas, treatment with 1, 2, 3 and 4 led to a slower rate (2.2, 3.5, 2.6 and 3.7 μm/h respectively) of migration; almost half of the migration speed as compared to that of the non-treated cells. The C4-2 cells with no treatment migrated at a speed of 6.5 μm/h whereas, treatment with 1, 2, 3 and 4 led to a slower rate (2.4, 3.3, 3.9 and 2.5 μm/h respectively) of migration (FIGS. 3D-3E). Since migration is the first step towards invasion and metastasis of cancer cells 1, 2, 3 and 4 might as well interfere with the metastasis process and lead 1 was found as the most efficient among these based on the migration speed rate in both the cells.

A further data set addresses T1, androgen receptor (AR) (Homo sapiens, UniProt P10275, T878A).
T1 construct: we performed western blot analysis of LNCaP and C4-2 cells' lysates after treated with the indicated drugs/compounds; endogenous in cells; host or cells: C4-2
As to the kind of experiment: Western blot of AR expression in C4-2 cell lysates. In kind it is cell-based. As to conditions: C4-2 cells, 1 μM, 24 h, compared to vehicle and other treatments including ABI.

Data set [5] has as its system LNCaP cells. As to the kind of experiment: In vitro scratch assay, LNCaP cell migration. As to conditions: no treatment 4.8 μm/h. In kind it is cell-based, human.
Excerpt: as §5

The test system of data set [6] is LNCaP cells. The experiment in a line: Cell proliferation / growth inhibition in LNCaP cells. It is filed as cell-based. Particulars: Homo sapiens, read-out: growth inhibition IC50.
Method: All these cells were and maintained at 37° C. with 5% CO2 atmosphere in a humidified incubator following American Type Culture Collection (ATCC) protocol. LNCaP cells were grown in RPMI-1640 (Gibco) supplemented with 10% FBS (Atlanta Biologics), 20 mM HEPES and 1% penicillin/streptomycin (Invitrogen). […] For experiments, cells were used from 3 to 12 passages from thawing.
The mark [7] stands for this setting: C4-2 cells, read-out: growth inhibition / proliferation IC50.
Where [8] appears, read: Homo sapiens, C4-2, read-out: growth inhibition / proliferation IC50.
[9] abbreviates: Homo sapiens, C4-2 cells, read-out: growth inhibition / proliferation IC50.

T1 sequence (P10275 whole entry T878A): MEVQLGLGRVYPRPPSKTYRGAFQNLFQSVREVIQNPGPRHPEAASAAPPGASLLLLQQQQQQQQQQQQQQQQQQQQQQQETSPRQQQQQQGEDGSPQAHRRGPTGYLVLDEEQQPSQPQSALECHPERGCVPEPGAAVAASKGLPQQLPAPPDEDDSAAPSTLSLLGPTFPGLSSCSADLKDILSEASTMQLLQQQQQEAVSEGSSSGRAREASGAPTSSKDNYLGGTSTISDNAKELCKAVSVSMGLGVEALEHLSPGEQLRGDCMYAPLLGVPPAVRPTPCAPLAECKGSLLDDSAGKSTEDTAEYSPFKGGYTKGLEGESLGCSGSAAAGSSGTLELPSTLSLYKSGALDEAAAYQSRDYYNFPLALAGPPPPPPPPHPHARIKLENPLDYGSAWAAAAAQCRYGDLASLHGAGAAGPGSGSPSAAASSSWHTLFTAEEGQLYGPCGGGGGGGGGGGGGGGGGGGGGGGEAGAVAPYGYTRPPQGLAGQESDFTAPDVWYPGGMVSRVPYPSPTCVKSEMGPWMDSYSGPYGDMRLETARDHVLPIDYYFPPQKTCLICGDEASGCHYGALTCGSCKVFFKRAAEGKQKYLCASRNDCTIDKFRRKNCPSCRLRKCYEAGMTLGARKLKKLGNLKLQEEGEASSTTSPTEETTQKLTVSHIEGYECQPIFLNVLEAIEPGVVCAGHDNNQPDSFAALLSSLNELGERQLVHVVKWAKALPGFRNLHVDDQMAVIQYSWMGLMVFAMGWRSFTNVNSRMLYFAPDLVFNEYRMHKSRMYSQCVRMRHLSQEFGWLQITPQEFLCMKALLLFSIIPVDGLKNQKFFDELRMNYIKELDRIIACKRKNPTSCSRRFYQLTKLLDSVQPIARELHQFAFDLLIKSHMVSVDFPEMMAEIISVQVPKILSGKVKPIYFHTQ
Method for androgen receptor (AR): First, 0.5×10^6 cells/well were seeded in 6-well plate coated with 0.01% poly-L-lysine. Next day, cells were treated with 1 μM concentrations of drugs/compounds or 0.01% DMSO-growth media as vehicle control and the treatment was continued for 24 h in a humidified incubator at 37° C. and 5% CO2 atmosphere. Following treatment, cells were washed with cold PBS and lysed in TBSN buffer (20 mmol/L Tris, pH 8.0, 150 mmol/L NaCl, 1.5 mmol/L EDTA, 5 mmol/L EGTA, 0.5% Nonidet P-40, and 0.5 mmol/L Na3VO4) supplemented with 1× protease inhibitor cocktail tablets to obtain cellular lysates. The protein concentration of the whole cell lysate was quantified by Pierce BCA Protein Assay (Thermo Scientific). The lysate was run on 10% SDS-PAGE gel (40 μg of protein per lane) and β-actin (clone 8H10D10, Cell Signaling Technology) was used as a loading control. Proteins were transferred onto PVDF membrane and the nonspecific binding was blocked using 5% milk in PBS-T (0.05% Tween-20 in PBS buffer) for 1 h. […] Protein expression was normalized to β-actin and densitometry was calculated using ImageJ Software.

In the case of `C[C@]12CC[C@H](O)CC1=CC[C@@H]1[C@@H]2CC[C@]2(C)C(c3cccnc3)=CC[C@@H]12` [ABI, abiraterone, reference compound], in [1] (RWPE-1 normal prostatic epithelial cells), the IC50 was 7.2 µM.

As for `C#C[C@@]1(O)CC[C@@H]2[C@H]3[C@@H](CC[C@@]21C)[C@H]1CCC(=O)C=C1C[C@@H]3C` [Compound 1], the values for the IC50 in the data set with RWPE-1 cells and in the data set on C4-2 cells [3] (setting [7]) were 54.6 µM and 0.00072 µM, respectively. Also, the “metabolic stability compared to ABI” value in [2] is given as “more stable than the current CRPC drug ABI”. Besides, in the data set on LuCaP35CR xenografts (LuCaP35CR mice, over 16 days), the average body weight entry is recorded as “did not change the average body weight”. Moreover, the tumor growth result in the data set with LuCaP35CR xenografts (castrate mice bearing LuCaP35CR xenografts, 10 mg/kg, compared to vehicle) is on record as “suppressed the tumor growth rapidly”. In addition, in the data set on C4-2 cells [3] (C4-2 cells), the “proliferation IC50 compared to ABI, in words” value was “much less in C4-2 cells than that of ABI”. Also, the migration speed was found to be 2.4 μm/h in the data set with C4-2 cells [4] and 2.2 μm/h with LNCaP cells [5]. The “AR degradation (western blot), in words” value at androgen receptor (AR) was “degraded AR efficiently”.

As to `C#C[C@]1(O)CC[C@H]2[C@@H]3CCC4=CC(=O)CC[C@]4(C)[C@H]3CC[C@@]21C` [Compound 2, Ethisterone], the IC50 worked out at 18.3 µM in data set [1] and 0.011 µM with C4-2 cells [3] (setting [8]). For the same compound, the migration speed with C4-2 cells [4] was 3.3 μm/h; in the data set on LNCaP cells [5] it was 3.5 μm/h.

Take `C#C[C@@]1(O)CC[C@@H]2[C@H]3[C@@H](CC[C@@]21C)[C@H]1CCC(=NO)C=C1C[C@H]3C` [Compound 3]: the IC50 in the data set on C4-2 cells [3] (setting [9]) was below 0.1 µM. Besides, the migration speed in the data set with C4-2 cells [4] is 3.9 μm/h; with LNCaP cells [5], 2.6 μm/h.

Regarding `C#C[C@]1(O)CC[C@H]2[C@@H]3CCC4=CC(=NO)CC[C@@H]4[C@H]3CC[C@@]21C` [Compound 4], the migration speed in the data set with C4-2 cells [4] amounted to 2.5 μm/h; with LNCaP cells [5], 3.7 μm/h.

On to `CC[C@@]1(O)CC[C@@H]2[C@H]3[C@@H](CC[C@@]21C)[C@H]1CCC(=O)CC1C[C@@H]3C` (some centres unmarked) [Compound 13], for which the IC50 was 17.8 µM in the data set on RWPE-1 cells and 0.0035 µM with C4-2 cells [3] (setting [7]).

As to `C[C@H]1CC2=CC(=O)CC[C@@H]2[C@@H]2CC[C@@]3(C)[C@H](CC[C@]3(O)C#Cc3ccccc3N)[C@@H]21` [Compound 15], the values for the IC50 in the data set on RWPE-1 cells and in the data set on C4-2 cells [3] (setting [7]) were 13.5 µM and 0.0041 µM, respectively.

For `C#C[C@]1(O)CC[C@H]2[C@@H]3CCC4=CC(=O)CC[C@@H]4[C@H]3CC[C@@]21CC` [LEV, levonorgestrel, reference compound], the values for the IC50 (in data set [1]; in the data set with LNCaP cells [6] (LNCaP cells); in the data set with C4-2 cells [3] (setting [9])) were 59.7 µM, 0.181 µM and 0.0418 µM, respectively.

For the compound `C#C[C@]1(O)CC[C@H]2[C@@H]3CCC4=CC(=O)CC[C@@H]4[C@H]3CC[C@@]21C` [NOR, norethisterone, reference compound], the IC50 is 86.3 µM in [1], 0.0325 µM in the data set with LNCaP cells [6] (LNCaP cells) and 0.00704 µM with C4-2 cells [3] (setting [9]).

Regarding `C#C[C@]1(O)CC[C@H]2[C@@H]3[C@H](C)CC4=C(CCC(=O)C4)[C@H]3CC[C@@]21C` [TIB, tibolone, reference compound], the IC50 in [1] turned out to be 23.3 µM; in the data set with LNCaP cells [6] (LNCaP), 0.0249 µM; in the data set on C4-2 cells [3] (setting [8]), 0.00312 µM.

For the origin of these results see patent publication US20220169672A1, “COMPOUNDS FOR TARGETED THERAPIES OF CASTRATION RESISTANT PROSTATE CANCER” (Purdue Research Foundation, priority 2019, published 2022).
